Laboratory results from patent publication US20120077818A1, “COMPOSITIONS COMPRISING TRANSNORSERTRALINE AND SEROTONIN RECEPTOR 1A AGONISTS/ANTAGONISTS AND USES THEREOF” (Sunovion Pharmaceuticals Inc., priority 2009, published 2012).
“Also recorded” adds a separate entry of the source.

Test system: dorsal raphe 5-HT neurons
Assay: In vivo electrophysiological recordings of dorsal raphe (DR) 5-HT neurons
Design: species or system rat
Experimental: Male Sprague Dawley rats (Charles River, St. Constant, QC) weighing 250 to 300 g, were used for the experiments. They were housed individually and kept under standard laboratory conditions (12:12 hour light/dark cycle with free access to food and water). All animals were handled according to the guidelines of the Canadian Council on Animal Care (CCAC) and protocols in this study were approved by the local Animal Care Committee (Ottawa Health Research Institute, Ottawa, ON, Canada).
Rats were anaesthetized with chloral hydrate (400 mg/kg; i.p.) and placed into a stereotaxic frame. The extracellular recordings of 5-HT neurons in the dorsal raphe (“DR”) were carried out using single-barrelled glass micropipettes (R&D Scientific Glass, Spencerville, Md.) preloaded with a 2 M NaCl solution. Their impedance typically ranged between 4-7 MΩ.
The single-barrelled glass micropipettes were positioned using the following coordinates (in mm from lambda): AP, +1.0 to 1.2; L, 0±0.1; V, 5 to 7. The presumed 5-HT neurons were then identified using the following criteria: a slow (0.5-2.5 Hz) and regular firing rate and long-duration (2-5 ms) bi- or triphasic extracellular waveform (Aghajanian and Vandermaelen, 1982b). […] This occasional firing pattern of 5-HT neurons was analyzed by spike interval burst analysis following the criteria set by Hajos et al. The onset of a burst was defined as the occurrence of two spikes with an interspike interval shorter than 0.005 s.
The percent of baseline firing rate were measured 60 seconds after systemic administration of the triple reuptake inhibitor. Various parameters were determined to examine the electrophysiological effects of co-administration of a transnorsertraline with WAY-100635. These parameters included the number of single spikes, bursts, cells per track and the firing rate of 5-HT neurons.
Electrophysiological data expressed as means±S.E.M of percent of baseline firing rate or as means±S.E.M of single spikes or bursts measured from the same neurons. Data were analyzed by using a one- or two-ways analysis of variance (ANOVA), with treatment, treatment and pre-treatment or treatment and brain region as main factors. Fisher's protected least significant difference test (Fisher's PLSD-test) was used to analyze the statistical significance between groups. The paired Student's t test was used in experiments comparing two groups. In each experiment, a level of p<0.05 was accepted as evidence for a statistically significant effect.

[1] = rats pre-treated with WAY-100635

| SMILES | number of bursts of 5-HT neurons (effect in words) [1] | number of single spikes of 5-HT neurons (effect in words) [1] | DR 5-HT firing rate (effect in words) (rats pre-treated with WAY-100635, (1R,4S)-transnorsertraline 0.5-2 mg/kg iv) | spontaneous firing rate of DR 5-HT neurons (effect in words) (WAY-100635 alone, 100 μg/kg iv) | spontaneous firing rate of DR 5-HT neurons (WAY-100635 alone, 100 μg/kg iv, printed as 1.3±0.1 vs 1.4±0.1 (n=8), in Hz (unit assumed)) |
| --- | --- | --- | --- | --- | --- |
| N[C@@H]1CC[C@@H](c2ccc(Cl)c(Cl)c2)c2ccccc21 [(1R,4S)-transnorsertraline, (1R,4S)-trans-4-(3,4-dichlorophenyl)-1,2-3,4-tetrahydro-1-naphthalenamine] | significantly increased | significantly increased | significant increase; also recorded: markedly increased | – | – |
| COc1ccccc1N1CCN(CCN(C(=O)C2CCCCC2)c2ccccn2)CC1 [WAY-100635, reference compound] | – | – | – | did not alter | 1.4±0.1 |
